We go through eleven molecules from ChEMBL document CHEMBL1201862, “PubChem BioAssay data set” (2004).

Each structure is given as a SMILES string.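 Interpolation was linear, between the two tested concentrations surrounding the appropriate level; five concentrations were tested over 48 hours in 96-well plates. Abbreviation: GI50, concentration required for 50% inhibition of growth.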 Active and inactive are the calls of the source. Cut-off read from the data, not from the text of the source: active = GI50 up to about 1.1 µM and inactive = higher.

What all share (assay): NCI-60 cell line screen, 48 h
Assay [1] relates to COLO 205.
Assay [2] relates to OVCAR-4.
Assay [3] concerns NCI-H226.
Assay [4] deals with MDA-MB-435.
In assay [5] the test system is A498.
Assay [6] relates to U-251.
Assay [7] relates to SNB-75.
The subject of assay [8] is 786-0.
Assay [9] deals with MDA-N.
Assay [10] deals with UO-31.
The subject of assay [11] is SK-MEL-5.
In assay [12] the test system is UACC-257.
Assay [13] has as its system HT-29.
Assay [14] relates to SNB-19.
Assay [15] has as its system MOLT-4.
Assay [16] relates to TK-10.
Assay [17] concerns T47D.
Assay [18] has as its system LOX IMVI.
Assay [19] deals with SK-MEL-28.
Assay [20] relates to DU-145.

On to `CN1CC2CN(Cc3ccccc3)CCN2c2cccnc21` (stereo unspecified), for which the GI50 in assay [1] is 36.6 µM (inactive); in assay [2], 82.6 µM (inactive); in assay [3] it was 57.7 µM (inactive); in assay [4] it was 30.5 µM (inactive); in assay [5] it was 95.3 µM (inactive); in [6], 42.8 µM (inactive). Moreover, the GI50 was 41.3 µM (inactive) in assay [7]; 52.1 µM (inactive) in assay [8]; 38.6 µM (inactive) in assay [9]; 69.3 µM (inactive) in assay [10]; 31.1 µM (inactive) in [11]; 40.8 µM (inactive) in assay [12]. For the same molecule, the GI50 was 29.1 µM (inactive) in assay [13]; 64.7 µM (inactive) in assay [14]; 35.6 µM (inactive) in assay [15]; > 100 µM (inactive) in assay [16]; 53.7 µM (inactive) in [17]; 20.9 µM (inactive) in [18].
In the case of `CCn1c(=O)c2c3ccc(OC(C)=O)cc3[nH]c2c2ccc(OC(C)=O)cc21`, the GI50 in assay [1] is 30.9 µM (inactive); in [2], 57.4 µM (inactive); in assay [3], 24.8 µM (inactive); in assay [4] it was 41 µM (inactive); in assay [19], 49.2 µM (inactive); in [6], 37.2 µM (inactive). For the same molecule, the GI50 in assay [20] is 18.5 µM (inactive); in assay [7] it was 10.1 µM (inactive); in assay [8], 58.1 µM (inactive); in assay [9] it was 35.2 µM (inactive); in [10] it was 44.1 µM (inactive); in assay [11], 30.8 µM (inactive). For the same molecule, the GI50 was 42.1 µM (inactive) in assay [12]; 43.3 µM (inactive) in [13]; 50.5 µM (inactive) in assay [14]; 17.6 µM (inactive) in [15]; 51.5 µM (inactive) in [16]; 18.5 µM (inactive) in assay [17].
As to `COC(=O)/C=C/c1ccc2c(c1)[C@H](C(=O)OC)[C@@H](c1ccc(O)cc1)O2`, the GI50 was 25.2 µM (inactive) in [1]; 29.3 µM (inactive) in [2]; 55.8 µM (inactive) in assay [3]; 3.32 µM (inactive) in assay [4]; 86.9 µM (inactive) in assay [5]; 23.1 µM (inactive) in assay [19]. For the same molecule, the GI50 in assay [6] is 21.9 µM (inactive); in assay [20] it was 71.3 µM (inactive); in assay [8], 30 µM (inactive); in [9], 5.06 µM (inactive); in assay [10] it was 28.5 µM (inactive); in assay [11] it was 14.2 µM (inactive). Further, the GI50 in assay [12] is 32.5 µM (inactive); in assay [13], 27.9 µM (inactive); in [14], 21.9 µM (inactive); in [15], 8.45 µM (inactive); in assay [16], 41.4 µM (inactive); in [17], 28.1 µM (inactive). Besides, the GI50 in assay [18] was 18 µM (inactive).
In the case of `CC1CN=C(N(C(=O)Nc2ccc(Cl)cc2)c2cccc(Cl)c2)S1` (stereo unspecified), the GI50 was 18.5 µM (inactive) in [1]; 46.3 µM (inactive) in assay [2]; 16.9 µM (inactive) in assay [5]; 28.6 µM (inactive) in assay [19]; 70.3 µM (inactive) in [6]; 46.8 µM (inactive) in assay [20]. Also, the GI50 is 65 µM (inactive) in [7]; 23.9 µM (inactive) in assay [8]; 24.9 µM (inactive) in assay [9]; 37.4 µM (inactive) in assay [10]; 17.5 µM (inactive) in assay [11]; 28.2 µM (inactive) in assay [12]. For the same molecule, the GI50 in assay [13] is 23 µM (inactive); in assay [14], > 100 µM (inactive); in assay [15], > 10 µM (inactive); in assay [16], 15 µM (inactive); in assay [17], 13 µM (inactive); in assay [18] it was 21.6 µM (inactive).
With `O=C(Nc1cc2c(=O)[nH]c3ccccc3c2oc1=O)c1cnccn1`, the GI50 in assay [1], in assay [2], in [3], in [4], in assay [19] and in assay [6] was > 100 µM (inactive) in each case. Moreover, the GI50 in assay [20] is > 100 µM (inactive); in assay [7] it was > 100 µM (inactive); in assay [8], > 100 µM (inactive); in assay [9], > 100 µM (inactive); in assay [10], 80.9 µM (inactive); in assay [11], > 100 µM (inactive). Besides, the GI50 in assay [12], in assay [13], in assay [14], in [15], in assay [16] and in [17] was > 100 µM (inactive) in each case. The GI50 in [18] is > 100 µM (inactive).
For the molecule `CC1C(c2ccc(F)cc2)c2cc3c(cc2OC1N1CCCC1)OCO3` (stereo unspecified), the GI50 was 49.5 µM (inactive) in assay [1]; 44.6 µM (inactive) in [4]; 90.4 µM (inactive) in assay [19]; 61.9 µM (inactive) in assay [20]; 22.3 µM (inactive) in assay [7]; 45.1 µM (inactive) in assay [8]. Further, the GI50 is 66.4 µM (inactive) in [9]; 23.2 µM (inactive) in assay [10]; 37.7 µM (inactive) in [11]; 55.1 µM (inactive) in [12]; 47.8 µM (inactive) in assay [13]; 29.1 µM (inactive) in [14]. Further, the GI50 is 37.2 µM (inactive) in assay [16], 35.7 µM (inactive) in [17] and 83.8 µM (inactive) in assay [18].
For the molecule `[N-]=[N+]=Nc1c(-c2ccccc2)c(Cl)nc2ccccc12`, the GI50 in [1] is 20 µM (inactive); in assay [2] it was 21.9 µM (inactive); in assay [3], 22.2 µM (inactive); in [4], 38.3 µM (inactive); in assay [5] it was 27.5 µM (inactive); in assay [19], 58.7 µM (inactive). The GI50 is 48 µM (inactive) in assay [6]; 29.9 µM (inactive) in assay [7]; 38 µM (inactive) in [8]; 27 µM (inactive) in assay [9]; 15.5 µM (inactive) in [10]; 17.3 µM (inactive) in [11]. Further, the GI50 in assay [12] is 25.5 µM (inactive); in [13] it was 19.7 µM (inactive); in [14] it was 29.9 µM (inactive); in [15] it was 51.4 µM (inactive); in assay [16], 74.5 µM (inactive); in [17], 41 µM (inactive). In assay [18], the GI50 was 20.6 µM (inactive).
For `CO/N=C(\C(=O)N(C)n1cnnc1)c1csc(NC(c2ccccc2)(c2ccccc2)c2ccccc2)n1`, the GI50 in assay [1], in [2], in [3], in [5], in [19] and in assay [6] was > 10 µM (inactive) in each case. The GI50 in [20], in [7], in assay [8], in [9], in [10] and in [11] was > 10 µM (inactive) in each case. The GI50 in [12], in assay [13], in assay [14], in assay [15], in [16] and in [17] was > 10 µM (inactive) in each case. In addition, in assay [18], the GI50 is > 10 µM (inactive).
With `CC1=NN(c2cccc(Cl)c2)C2(C1=Cc1ccc(N(C)C)cc1)C(Cl)C(=O)N2c1nc2ccccc2s1` (stereo unspecified), the GI50 was 24.2 µM (inactive) in [2]; > 100 µM (inactive) in [3]; 6.18 µM (inactive) in assay [4]; 36.3 µM (inactive) in assay [5]; > 100 µM (inactive) in assay [19]; 53.7 µM (inactive) in assay [6]. For the same molecule, the GI50 in assay [20] was 97.5 µM (inactive); in assay [8], 43.1 µM (inactive); in assay [9] it was 63.7 µM (inactive); in [10], > 100 µM (inactive); in [11], 49.1 µM (inactive); in [12] it was > 100 µM (inactive). Also, the GI50 in assay [13] was 25.5 µM (inactive); in [15], 74 µM (inactive); in [16], 76.4 µM (inactive); in [17], 50.8 µM (inactive); in assay [18], > 100 µM (inactive).
Take `S=C1/C(=N/c2ccccc2)N(c2ccccc2)/C(=N\c2cccc[n+]2Cc2ccccc2)N1c1ccccc1`: the GI50 in assay [1] was 17.1 µM (inactive); in assay [3], 19.3 µM (inactive); in [4], 10.6 µM (inactive); in [19], 17.6 µM (inactive); in assay [6], > 10 µM (inactive); in assay [20] it was 28.1 µM (inactive). Moreover, the GI50 in assay [7] was < 0.01 µM (active); in assay [8], 15.8 µM (inactive); in assay [9] it was 11.5 µM (inactive); in assay [10], 16.4 µM (inactive); in assay [11], 12.8 µM (inactive); in [12], 17.3 µM (inactive). In addition, the GI50 in assay [13] is 16.4 µM (inactive); in [14] it was 15.4 µM (inactive); in assay [15], 8.79 µM (inactive); in assay [16] it was 26.3 µM (inactive); in assay [17] it was 22.8 µM (inactive).
For `O=C(Nc1ccccc1F)c1cc2ccc(O)cc2o/c1=N\c1cccc(C(F)(F)F)c1`, the GI50 in assay [1] was 18.6 µM (inactive); in [2] it was 2.63 µM (inactive); in assay [4], 3.51 µM (inactive); in [5], 7.4 µM (inactive); in [19], 3.82 µM (inactive); in assay [6], 3.73 µM (inactive). Moreover, the GI50 is 4.04 µM (inactive) in assay [20]; 4.57 µM (inactive) in assay [8]; 3.73 µM (inactive) in [9]; 3.85 µM (inactive) in [10]; 1.94 µM (inactive) in assay [11]; 4.02 µM (inactive) in assay [12]. Moreover, the GI50 was 32.1 µM (inactive) in assay [13]; 5.87 µM (inactive) in assay [14]; 2.94 µM (inactive) in assay [15]; 2.59 µM (inactive) in assay [17]; 2.69 µM (inactive) in assay [18].
